Consider two molecules from paper PMC6884555, “Simultaneous measurement of p53:Mdm2 and p53:Mdm4 protein-protein interactions in whole cells using fluorescence labelled foci” (Scientific Reports, 2019).

As a reminder, the IC50 is the point on the concentration scale where inhibition reaches its midpoint.

Series [1] deals with CHO-K1 cells. Put plainly: LDH release assay (CytoTox). Format: cell-based, Chinese hamster. The conditions noted are these: Cricetulus griseus. (LDH leaks from cells whose membrane has failed.)
Series [2] deals with p53:Mdm2 interaction. The conditions noted are these: read-out: IC50, fluorescence polarization assay; cited from earlier work. In general terms: In fluorescence polarisation assays a small probe gives low polarisation when free and higher when bound to something large.
For series [3], the target named is T1, Mdm4:p53 (Homo sapiens, UniProt O15151).
T1 sequence (O15151 1-490): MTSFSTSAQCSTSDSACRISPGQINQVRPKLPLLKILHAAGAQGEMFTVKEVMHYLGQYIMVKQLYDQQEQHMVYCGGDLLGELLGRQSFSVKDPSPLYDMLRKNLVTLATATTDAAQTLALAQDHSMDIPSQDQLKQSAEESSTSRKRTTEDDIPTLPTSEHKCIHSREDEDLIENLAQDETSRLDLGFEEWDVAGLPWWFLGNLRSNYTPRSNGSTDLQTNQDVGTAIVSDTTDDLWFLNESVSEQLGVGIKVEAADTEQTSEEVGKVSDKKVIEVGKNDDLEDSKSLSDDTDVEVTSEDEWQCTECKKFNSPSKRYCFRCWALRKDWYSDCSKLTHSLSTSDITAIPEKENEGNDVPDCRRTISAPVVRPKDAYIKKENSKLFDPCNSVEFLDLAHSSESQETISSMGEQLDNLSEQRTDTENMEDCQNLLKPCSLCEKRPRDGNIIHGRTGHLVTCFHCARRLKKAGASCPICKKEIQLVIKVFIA
Description: NanoBIT Mdm4:p53 PPI assay (transiently transfected CHO-K1 cells). Format: cell-based. To be noted: NanoBIT Mdm4:p53 (IC50, µM), small molecules, 10% (v/v) FCS.
Description: When LgBiT and SmBiT are optimally fused to two interacting proteins, in this case full-length Mdm2 and full-length p53, they will be brought sufficiently close to each other that they will reform the active luciferase and generate a luminescence signal.
For transient transfection experiments, 24 hours prior to transfection CHO cells were seeded at a cell density of 300,000 or 1200,000 cells respectively per well of a 6 well plate (ThermoFisher Scientific). […] After a 24 hour incubation, medium was removed and cells were washed with PBS saline. Transfected CHO-1 cells were trypsinised and re-suspended in Opti-MEM media with 0% FCS. […] 25 μl of a 20-fold dilution of Nano-Glo live cell substrate (Promega) in Nano-Glo dilution buffer (PROMEGA) was added to each well and the plate shaken for 1 min at 22 °C and luminescence assessed after additional 50 minutes as described previously[43]. All luminescence assay were carried out in triplicate and luciferase activity for each well was measured by Envision Multilabel plate reader (PerkinElmer). […]
Curve-fitting was carried out using Prism 4.0 (GraphPad). a was always constrained to the experimental value determined using the 1% DMSO (v/v) experimental control. After curve fitting the value determined for d was then verified to be in close agreement with the plateau of the titration.

Series [4] has as its target T2, Mdm4:p53 (Homo sapiens, UniProt O15151).
T2 construct: the p53 (1–70) and Mdm4 (1–112) PPI was then cloned and fused to the FP and ASH tags
T2 sequence (O15151 1-112): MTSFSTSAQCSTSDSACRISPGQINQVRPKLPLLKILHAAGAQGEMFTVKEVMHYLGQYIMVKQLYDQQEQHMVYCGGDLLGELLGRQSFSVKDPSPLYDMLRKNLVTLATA
Put plainly: Bimodal FLUOPPI Mdm4:p53 PPI assay (pre-mixed stably transfected CHO-K1 cells, high-content imaging). Format: cell-based. To be noted: bimodal system; both treatment time points.
Description: Separate CHO-K1 lines stably expressing either Ash-p53:AG-Mdm2 or Ash-p53:MR-Mdm4 Fluoppi PPI pairs were established and maintained independently. To enable bimodal measurement both cell lines were pre-mixed in equal proportions and then used to seed 96 well plates for compound analysis. […] Plates were incubated overnight and cells were treated with PPI modulating drugs. […] Cells were also processed using a nuclear morphology filter. […] A minimum number of 500 foci were used to determine this value. Dose curves for each compound were then derived and used to calculate a corresponding IC50 value.
Two stable cell lines, 1A7-1 and 1B7-11 were mixed equally and seeded into poly-D-lysine black-wall 96-well plates (Corning) at a density of 20,000 cells/well and incubated for 24 hours at 37 °C in a 5% CO2 atmosphere. […] Green (AG), red (MR) and blue (Hoechst33342) or far-red (Draq5) fluorescence images were used to monitor p53-MDM2, p53-MDM4 and nuclei, respectively. […] To remove dead cells from analysis, only cells with a “nuclei roundness” score of more than 0.75 were counted. FLUOPPI values were calculated by dividing the total green or red fluorescence intensity of puncta by the number of AG-positive nuclei or MR-positive nuclei, respectively. […]

Series [5] concerns the target T3, ASH-p53:AG-Mdm2 (Homo sapiens, UniProt Q00987).
T3 construct: all eight possible combinations of p53 (1–70) and Mdm2 (1–119) were fused
Description: Reversibility of FLUOPPI foci, transiently transfected ASH-p53:AG-Mdm2 CHO-K1 cells. Format: cell-based.
Description: All 8 possible interactions pairs for the Mdm2:p53 PPI were then co-expressed in CHO-K1 cells and then analysed for foci formation 24 hours post-transfection (Fig. 1B). To eliminate the possibility of non-specific interactions between the expression constructs giving rise to foci formation, negative control experiments were performed between the AG fluorescent tagged constructs and the non-fluorescent oligomerizing tag (ASH) by itself (Fig. 1C).
24 hours prior to transfection CHO-K1 cells were seeded at a cell density of 800,000 cells respectively per well of a 6 well plate (ThermoFisher Scientific). […] After a 24 hour incubation, medium was removed and cells were washed with PBS saline. Transfected CHO-K1 cells were trypsinised and re-suspended in Nutrient Mixture F-12 Ham (Ham's F-12) media (Sigma-Aldrich) supplemented with 10% FCS. Cells were then spun down at 1000 rpm for 5 minutes at room temperature. Supernatant was then discarded and cells re-suspended to a density of 200,000 cells per ml in Ham's F-12 media supplemented with 10% FCS. 100 μl of the resulting cell suspension was added to the wells of a black clear bottom 96-well plate. After a 24 hours incubation, the cell medium was replaced with fresh Ham's F-12 medium containing the indicated concentration of small molecule or stapled peptide and the stated FCS concentration. Final concentration of DMSO was 1% (v/v).

Series [6] has as its system CHO-K1 cells.
Series [7] deals with CHO-K1 cells. Put plainly: cells. The conditions noted are these: Cricetulus griseus, read-out: Viability (IC50, µM).
The mark [8] stands for this setting: CHO-K1, 1 h, read-out: LDH Release (EC50, µM).

“Also recorded” adds a separate entry of the source. Like-named read-outs stand apart in the source and are kept apart here.

T3 sequence (Q00987 1-119, looked up): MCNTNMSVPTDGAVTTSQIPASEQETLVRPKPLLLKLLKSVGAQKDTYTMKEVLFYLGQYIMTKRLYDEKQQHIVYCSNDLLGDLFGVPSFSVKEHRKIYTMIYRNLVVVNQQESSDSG

Take `CC(C)(C)C[C@@H]1N[C@@H](C(=O)N[C@H]2CC[C@H](O)CC2)[C@H](c2cccc(Cl)c2F)[C@]12C(=O)Nc1cc(Cl)ccc12` [MI-773]: the EC50 in series [1] (setting [8]) came to 30 ± 6.2 µM; in series [1] (CHO-K1, 4 h, read-out: Normalized LDH release, value printed beside curve), 30.6 ± 6.2 µM. Further, the IC50 in series [2] was 0.00088 µM; in series [3] (1 hour treatment), 10.2 ± 1.6 µM; in series [3] (24 hour treatment) it was 2.7 µM. In addition, the “inhibition of the p53:Mdm4 FLUOPPI PPI (in words)” value in series [4] is listed as “negligible effect”.
Turning to `COc1ccc(C2=N[C@@H](c3ccc(Cl)cc3)[C@@H](c3ccc(Cl)cc3)N2C(=O)N2CCNC(=O)C2)c(OC(C)C)c1` [Nutlin 3A], the EC50 in series [1] (setting [8]) turned out to be 35.7 ± 6.2 µM. For the same molecule, the “disruption of Mdm2:p53 fluorescent foci (in words)” value in series [5] is reported as “disrupted; also recorded: disruption of the fluorescent foci”. In addition, in series [6], the “effect on cellular viability (in words)” value was “significant decreases in cellular viability”. For the same molecule, in series [6] (Chinese hamster), the “concentration with significant effects on cellular viability (arbitrarily defined as >25%)” value is recorded as more than 25 µM. In addition, the half-maximal inhibitory concentration (IC50) was 34 ± 7 µM in series [7] (CHO-K1, 1 h) and 28.5 µM in series [7] (CHO-K1, 24 h).
